# Assay results as given in US11633400B2.
# Assays:
# [1] = cited from earlier work; for aqueous solubility: at room temperature, known values
# [2] = Water content by TG-FTIR; conditions: sample according to Example 1; relative humidity of about 35%
# [3] = Hygroscopicity by dynamic water vapor sorption analysis (DVS)
compound,measurement,setting,value
CN1c2c([nH]c(N)nc2=O)NC[C@@H]1CNc1ccc(C(=O)N[C@@H](CCC(=O)O)C(=O)O)cc1,solubility in water (in words),[1]; water,poorly soluble
CN1c2c(nc(N)[nH]c2=O)NC[C@@H]1CNc1ccc(C(=O)N[C@@H](CCC(=O)O)C(=O)O)cc1.OCCN1CCOCC1,water content (TG-FTIR),[2],about 8.9 % w/w
same,change of water content,"[3]; DVS, range from 20% to 80% relative humidity",about 2%
same,water adsorption compared with the crystalline polymorphic forms of the calcium salt,[3]; under changing relative humidity,significantly lower
CN1c2c([nH]c(N)nc2=O)NC[C@@H]1CNc1ccc(C(=O)N[C@@H](CCC(=O)[O-])C(=O)[O-])cc1.[Ca+2] [Form I],aqueous solubility,[1],about 10 mg/ml
CN1c2c([nH]c(N)nc2=O)NC[C@@H]1CNc1ccc(C(=O)N[C@@H](CCC(=O)[O-])C(=O)[O-])cc1.[Ca+2] [calcium salt (Form III)],aqueous solubility,[1],about 2.5 mg/ml
